Entries after “also recorded” stand apart in the source; their conditions may differ.
B1: purified lysine 2,3-aminomutase from Clostridium subterminale SB4 cells: naturally produced Clostridial enzyme, SEQ ID NO: 2 (protein)
chain: MINRRYELFKDVSDADWNDWRWQVRNRIETVEELKKYIPLTKEEEEGVAQCVKSLRMAITPYYLSLIDPNDPNDPVRKQAIPTALELNKAAADLEDPLHEDTDSPVPGLTHRYPDRVLLLITDMCSMYCRHCTRRRFAGQSDDSMPMERIDKAIDYIRNTPQVRDVLLSGGDALLVSDETLEYIIAKLREIPHVEIVRIGSRTPVVLPQRITPELVNMLKKYHPVWLNTHFNHPNEITEESTRACQLLADAGVPLGNQSVLLRGVNDCVHVMKELVNKLVKIRVRPYYIYQCDLSLGLEHFRTPVSKGIEIIEGLRGHTSGYCVPTFVVDAPGGGGKTPVMPNYVISQSHDKVILRNFEGVITTYSEPINYTPGCNCDVCTGKKKVHKVGVAGLLNGEGMALEPVGLERNKRHVQE
modifications: Clostridium subterminale
B2: Bacillus subtilus (SEQ ID NO:9): product of the Bacillus subtilus gene cloned in pET23a(+) and expressed in E. coli BL21 (DE3); tested as cell extract (protein, listed as Bacillus subtilis)
chain: MKNKWYKPKRHWKEIELWKDVPEEKWNDWLWQLTHTVRTLDDLKKVINLTEDEEEGVRISTKTIPLNITPYYASLMDPDNPRCPVRMQSVPLSEEMHKTKYDLEDPLHEDEDSPVPGLTHRYPDRVLFLVTNQCSMYCRYCTRRRFSGQIGMGVPKKQLDAAIAYIRETPEIRDCLISGGDGLLINDQILEYILKELRSIPHLEVIRIGTRAPVVFPQRITDHLCEILKKYHPVWLNTHFNTSIEMTEESVEACEKLVNAGVPVGNQAVVLAGINDSVPIMKKLMHDLVKIRVRPYYIYQCDLSEGIGHFRAPVSKGLEIIEGLRGHTSGYAVPTFVVDAPGGGGKIALQPNYVLSQSPDKVILRNFEGVITSYPEPENYIPNQADAYFESVFPETADKKEPIGLSAIFADKEVSFTPENVDRIKRREAYIANPEHETLKDRREKRDQLKEKKFLAQQKKQKETECGGDSS
modifications: CDS (1)..(1413)
notes: product of the Bacillus subtilus gene cloned in pET23a(+) and expressed in E. coli BL21 (DE3); tested as cell extract

Columns and labels:
[1] = target: T1, Clostridium subterminale SB4 lysine-2,3-aminomutase (Clostridium subterminale, UniProt Q9XBQ8); test: Conversion of L-alanine to β-alanine by lysine 2,3-aminomutase, HPLC of PITC derivatives; format: biochemical; details: for effect of amine on generation of β-alanine from L-alanine: amine 0.2 M, L-alanine 0.38 M, 90 min at 37° C.
T1 construct: made in house; host or cells: E. coli BL21(DE3) with pET-23a(+) (lysine 2,3-aminomutase gene) and pAlter-Ex2 (dnaY gene)
Protocol: FIG. 6 is time course of the appearance of the HPLC peak of β-alanine by Clostridium subterminale SB4 lysine 2,3-aminomutase. Reductively incubated recombinant-produced purified lysine-2,3-aminomutase (18) (10 μM-hexamer) was mixed with the following components: A) N-[2-hydroxyethyl-piperazine-N′-[3-propanesulfonic acid] (EPPS) 36 mM pH 8.0, Na salt; B) S-(5′-adenosyl)-L-methionine 390 μM; C) sodium hydrosulfite 3.6 mM; D) L-alanine 380 mM; E) ethylamine 0.20 M pH 8.0. At various time intervals at 37° C., 60 μl of reaction mix was added to 20 μl of 2 N perchloric acid to stop the reaction. Samples were centrifuged at 14,000×g for 10 mm. The supernatants were treated with phenylisothiocyanate (PITC) according to the method of Heinrikson and Meredith (28). The PITC derivative of L-alanine was separated from the β-alanine derivative by HPLC chromatography (28) using a C18 reverse phase column (Beckman Ultrasphere 5μ, 4.6 mm×25 cm, #235329), flow rate 1 ml/min, room temperature. The amino acids were resolved with a complex linear gradient composed of buffer A: 0.05 M ammonium acetate in water and buffer B: 0.1M ammonium acetate in 44% water, 46% acetonitrile, 10% methanol. The gradient established was 0-10% Buffer B in 35 min, then 10-30% Buffer B in 35 min. The PITC derivative of L-alanine elutes at a retention time of 35.0 min whereas the PITC derivative of β-alanine elutes at 26.6 min.
FIG. 8 is the effect of varying concentrations of L-alanine on the production of β-alanine by Clostridiurn subterminale SB4 lysine 2,3-aminomutase. Experimental conditions as given in FIG. 6 except for the concentration of L-alanine. The concentrations of L-alanine used: 0.05 M (2), 0.11 M (3), 0.20 M (4), and 0.38 M (5). The zero reaction time HPLC elution profile for 0.05 M L-alanine (1) is included. The enzyme was reacted with L-alanine for 90 min at 37° C. prior to stopping with perchloric acid and PITC derivatization.
FIG. 9 is the potentiating effect of ethyl and propylamines on the generation of β-alanine from L-alanine by Clostridium subterminale SB4 lysine 2,3-aminomutase. […]
Reductively incubated recombinant-produced purified Clostridium subterminale SB4 lysine-2,3-aminomutase (10 μM-hexamer) was mixed with the following components: 1) EPPS buffer 36 mM pH 8.0, Na salt; 2) S-(5′-adenosyl)-L-methionine 390 μM; 3) sodium hydrosulfite 3.6 mM; 4) L-alanine 380 mM; 5) ethylamine 0.20 M pH 8.0. […] The eluting compounds were detected by spectrophotometry at a wavelength of 254 nm The amino acids were resolved with a complex linear gradient composed of buffer A: 0.05 M ammonium acetate in water and buffer B: 0.1M ammonium acetate in 44% water, 46% acetonitrile, 10% methanol. […]

[2] = target: T1, Clostridium subterminale SB4 lysine-2,3-aminomutase; test: EPR spectroscopy of lysine 2,3-aminomutase and coenzymes mixed with L-α-amino acids; format: biochemical; details: amino acid in place of L-lysine, frozen, EPR at 77 K
Protocol: FIG. 3 is electron paramagnetic resonance (EPR) spectroscopy of Clostridium subterminale SB4 lysine-2,3-aminomutase in the presence of L-lysine (1), L-aspartate (2), L-glutamate (3), or no substrate (4). Reductively incubated recombinant-produced purified lysine-2,3-aminomutase (18) (75 μM-hexamer) was quickly mixed at 24° C. and frozen (total time<15 sec) at −150° C. with the following components: A) Tris(hydroxymethyl)aminomethane sulfate (Tris-sulfate) 240 mM pH 8.0; B) S-(5′-adenosyl)-L-methionine 1.4 mM; C) sodium hydrosulfite 2.0 mM; D) L-lysine, L-aspartate, or L-glutamate 120 mM. Concentrations listed are final concentrations after mixing. Following freezing, samples were evaluated at 77° K by EPR using a Varian model E3 spectrometer with the following settings: Field center—3250 Gauss; Scan width—200 Gauss; Microwave frequency—9.1 GHz; Microwave power—5 milli Watts; Modulation frequency—100 kHz; Modulation amplitude—1.6 Gauss; Time constant—0.3 sec.; Scan time—240 sec; Gain—125,000.
FIG. 4 is electron paramagnetic resonance (EPR) spectroscopy of Clostridium subterminale SB4 lysine-2,3-aminomutase in the presence of L-alanine (2), L-alanine+ethylamine (3) L-alanine+propylamine (4), L-lysine (5) and no substrate (1). Conditions as given in FIG. 3 except L-lysine or L-alanine 120 mM; ± ethylamine or propylamine each 0.19 M or no substrate (5).
FIG. 5 is electron paramagnetic resonance spectroscopy of Clostridium subterminale SB4 lysine-2,3-aminomutase in the presence of L-lysine (1), L-homoserine (2), DL-homocysteine (3), or L-methionine (4). Reductively incubated recombinant-produced purified lysine-2.3-aminomutase (18) (51.4 μM-hexamer) was quickly mixed at 24° C. and frozen (total time<15 sec) at −150° C. with the following components: A) Tris(hydroxymethyl)aminomethane sulfate (Tris-sulfate) 185 mM pH 8.0; B) S-(5′-adenosyl)-L-methionine 1.1 mM; C) sodium hydrosulfite 1.5 mM; D) L-lysine 92 mM, L-homoserine 92 mM, or DL-homocysteine 92 mM, or L-methionine 65 mM. Concentrations listed are final concentrations after mixing. Following freezing, samples were evaluated at 77° K by EPR using a Varian model E3 spectrometer with the following settings: Field center—3250 Gauss; Scan width—200 Gauss; Microwave frequency—9.1 GHz; Microwave power—5 milli Watts; Modulation frequency—100 kHz; Modulation amplitude—1.6 Gauss; Time constant—0.3 sec.; Scan time—240 sec; Gain—250,000. FIG. 4B. 4.6×enlargement of (2), (3), and (4) of FIG. 4A.
Although lysine 2,3-aminomutase is selective for L-lysine as its substrate, it also catalyzes the 2,3-aminomutation of other L-α-amino acids. A simple and definitive assay for such reaction is the EPR spectrum of a mixture of lysine 2,3-aminomutase with its coenzymes and an L-α-amino acid.
The spectral envelope is determined by five structural features in the substrate: 1) the L-configuration at the optically active carbon-2, shown as Cα in FIG. 1A; 2) a hydrogen atom bonded to Cα; 3) a carboxyl group bonded to Cα; 4) a nitrogen atom bonded to Cβ; and 5) a hydrogen atom bonded to Cβ. […] The conformation of the radical is determined by the dihedral angles relating the axis of the π-radical orbital to the bonds Cα—H, Cβ—H, and Cβ—N, and these angles determine the nuclear hyperfine splitting in the spectrum and, thereby, the shape of the spectral envelope.

[3] = target: T2, Clostridial lysine 2,3-aminomutase (Clostridium subterminale, UniProt Q9XBQ8); details: purified enzyme from Clostridium subterminale SB4 cells; Lieder et al., Biochemistry 37:2578 (1998); cited from earlier work
T2 construct: made in house; host or cells: E. coli BL21(DE3) with pET-23a(+) (lysine 2,3-aminomutase gene) and pAlter-Ex2 (dnaY gene)

lysine 2,3-aminomutase = target: T3, lysine 2,3-aminomutase (Bacillus subtilis, UniProt O34676); test: Lysine 2,3-aminomutase activity of extracts of E. coli BL21 (DE3) cells expressing the B. subtilus gene; format: biochemical, Bacillus subtilus; details: pET23a(+) construct in E. coli BL21 (DE3), induction with 1 mM IPTG
T3 construct: made in house; host or cells: E. coli BL21 (DE3), pET23a(+), NdeI/XhoI; cell extract
Source text: In one instance, the gene from Bacillus subtilus (SEQ ID NO:9) was isolated from chromosomal DNA by PCR generating an oligonucleotide insert which after the appropriate restriction digestion was cloned into the NdeI and XhoI site of pET23a(+) expression vector (Novagen, Inc., Madison, Wis.).

Molecule | EPR spectrum of product-related radical compared with L-lysine [2] | other results
CCN [ethylamine] | – | effect of amine on generation of β-alanine from L-alanine [1]: potentiated
CSCC[C@H](N)C(=O)O [L-methionine] | weak but also consistent with expectations for the analogous radical | –
CCCN [Propylamine] | – | effect of amine on generation of β-alanine from L-alanine [1]: potentiates the reaction less effectively than ethylamine
N[C@@H](CCO)C(=O)O [L-homoserine] | less intense but otherwise essentially indistinguishable from that with L-lysine | –
NC(CCS)C(=O)O (racemic) [DL-homocysteine] | less intense but otherwise essentially indistinguishable from that with L-lysine | –
N[C@@H](CCC(=O)O)C(=O)O [L-glutamate] | less intense but otherwise essentially indistinguishable from that with L-lysine | –
C[C@H](N)C(=O)O [L-alanine] | less intense but otherwise essentially indistinguishable from that with L-lysine | production of β-alanine from L-alanine ([1]; L-alanine 0.05 M to 0.38 M, ethylamine 0.20 M, 37° C.): β-alanine was produced from L-alanine; also recorded: increased β-alanine with increased substrate (L-alanine) concentration; rate of conversion of L-alanine to β-alanine relative to the rate with 0.2 M ethylamine ([1]; in the absence of ethylamine or propylamine, estimated): about 1/20
N[C@@H](CC(=O)O)C(=O)O [L-aspartate] | less intense but otherwise essentially indistinguishable from that with L-lysine | –
B1 | – | specific activity [3]: 30-40 units/mg
B2 | – | lysine 2,3-aminomutase activity of cell extracts (lysine 2,3-aminomutase): exhibiting lysine 2,3-aminomutase activity
